AC50 data for 2 compounds are collected here from ChEMBL document CHEMBL5291721, “A preclinical secondary pharmacology resource illuminates target-adverse drug reaction associations of marketed drugs” (Nat Commun, 2023).

In one test the target is Prothrombin (Homo sapiens, UniProt P00734). In kind it is functional.
For a further test, the target named is T1, Thromboxane A2 receptor (Homo sapiens, UniProt P21731).
T1 sequence (P21731 whole entry): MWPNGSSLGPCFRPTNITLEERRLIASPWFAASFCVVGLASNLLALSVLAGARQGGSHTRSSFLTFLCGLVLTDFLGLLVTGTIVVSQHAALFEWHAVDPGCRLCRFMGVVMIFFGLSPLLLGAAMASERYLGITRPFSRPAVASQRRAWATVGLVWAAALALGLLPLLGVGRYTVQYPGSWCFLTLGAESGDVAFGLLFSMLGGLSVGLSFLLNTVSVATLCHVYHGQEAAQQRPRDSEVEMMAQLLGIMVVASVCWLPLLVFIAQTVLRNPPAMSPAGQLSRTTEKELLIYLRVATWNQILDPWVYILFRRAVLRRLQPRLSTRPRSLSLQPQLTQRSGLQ
In kind it is functional, cell-based.

For test [1], the target named is T2, 5-hydroxytryptamine receptor 1A (Homo sapiens, UniProt P08908).
T2 sequence (P08908 whole entry): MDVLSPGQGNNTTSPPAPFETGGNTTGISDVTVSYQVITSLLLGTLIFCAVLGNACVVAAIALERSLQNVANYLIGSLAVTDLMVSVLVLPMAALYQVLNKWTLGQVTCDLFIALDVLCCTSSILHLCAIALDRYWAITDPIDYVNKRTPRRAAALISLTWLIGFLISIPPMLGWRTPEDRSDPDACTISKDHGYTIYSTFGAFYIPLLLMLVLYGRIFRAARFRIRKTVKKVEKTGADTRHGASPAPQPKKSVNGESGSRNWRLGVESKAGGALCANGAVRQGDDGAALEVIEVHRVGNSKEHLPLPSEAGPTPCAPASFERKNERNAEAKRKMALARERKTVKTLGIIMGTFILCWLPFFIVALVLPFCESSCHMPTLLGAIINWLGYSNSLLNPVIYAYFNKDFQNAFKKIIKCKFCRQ

The target in test [2] is cGMP-inhibited 3',5'-cyclic phosphodiesterase 3A (Homo sapiens, UniProt Q14432). It is filed as functional.
cGMP-inhibited 3',5'-cyclic phosphodiesterase 3A, sequence (Q14432 whole entry): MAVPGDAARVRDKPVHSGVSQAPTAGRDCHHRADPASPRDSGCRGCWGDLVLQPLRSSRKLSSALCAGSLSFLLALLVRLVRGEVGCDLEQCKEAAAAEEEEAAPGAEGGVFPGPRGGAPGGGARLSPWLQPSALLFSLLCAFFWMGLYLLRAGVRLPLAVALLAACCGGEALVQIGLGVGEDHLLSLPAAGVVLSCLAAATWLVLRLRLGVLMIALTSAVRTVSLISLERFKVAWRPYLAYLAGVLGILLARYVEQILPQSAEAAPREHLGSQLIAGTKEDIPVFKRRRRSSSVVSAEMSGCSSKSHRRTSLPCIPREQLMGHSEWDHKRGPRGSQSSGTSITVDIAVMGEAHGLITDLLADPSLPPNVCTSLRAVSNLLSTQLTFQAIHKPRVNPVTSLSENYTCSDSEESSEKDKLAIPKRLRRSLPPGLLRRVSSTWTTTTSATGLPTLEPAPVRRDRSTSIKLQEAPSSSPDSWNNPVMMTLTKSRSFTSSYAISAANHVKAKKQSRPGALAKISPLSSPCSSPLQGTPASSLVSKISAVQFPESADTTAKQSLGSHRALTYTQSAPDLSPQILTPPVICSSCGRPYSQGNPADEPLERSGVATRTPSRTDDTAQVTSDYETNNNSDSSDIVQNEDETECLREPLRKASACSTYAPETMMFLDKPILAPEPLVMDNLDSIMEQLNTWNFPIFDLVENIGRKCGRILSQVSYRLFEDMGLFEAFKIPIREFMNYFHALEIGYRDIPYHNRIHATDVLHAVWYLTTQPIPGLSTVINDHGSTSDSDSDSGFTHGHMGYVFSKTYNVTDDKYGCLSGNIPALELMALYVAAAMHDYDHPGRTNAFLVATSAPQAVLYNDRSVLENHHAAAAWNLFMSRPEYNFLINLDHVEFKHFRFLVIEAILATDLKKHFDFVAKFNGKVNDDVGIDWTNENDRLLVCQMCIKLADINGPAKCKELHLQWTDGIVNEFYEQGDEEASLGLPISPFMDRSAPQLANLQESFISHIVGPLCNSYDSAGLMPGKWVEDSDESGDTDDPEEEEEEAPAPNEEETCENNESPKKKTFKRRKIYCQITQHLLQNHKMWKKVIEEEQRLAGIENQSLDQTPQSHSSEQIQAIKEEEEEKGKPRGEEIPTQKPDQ
Test [3] deals with 3',5'-cyclic-AMP phosphodiesterase 4A (Homo sapiens, UniProt P27815). In kind it is functional.
3',5'-cyclic-AMP phosphodiesterase 4A, sequence (P27815 whole entry): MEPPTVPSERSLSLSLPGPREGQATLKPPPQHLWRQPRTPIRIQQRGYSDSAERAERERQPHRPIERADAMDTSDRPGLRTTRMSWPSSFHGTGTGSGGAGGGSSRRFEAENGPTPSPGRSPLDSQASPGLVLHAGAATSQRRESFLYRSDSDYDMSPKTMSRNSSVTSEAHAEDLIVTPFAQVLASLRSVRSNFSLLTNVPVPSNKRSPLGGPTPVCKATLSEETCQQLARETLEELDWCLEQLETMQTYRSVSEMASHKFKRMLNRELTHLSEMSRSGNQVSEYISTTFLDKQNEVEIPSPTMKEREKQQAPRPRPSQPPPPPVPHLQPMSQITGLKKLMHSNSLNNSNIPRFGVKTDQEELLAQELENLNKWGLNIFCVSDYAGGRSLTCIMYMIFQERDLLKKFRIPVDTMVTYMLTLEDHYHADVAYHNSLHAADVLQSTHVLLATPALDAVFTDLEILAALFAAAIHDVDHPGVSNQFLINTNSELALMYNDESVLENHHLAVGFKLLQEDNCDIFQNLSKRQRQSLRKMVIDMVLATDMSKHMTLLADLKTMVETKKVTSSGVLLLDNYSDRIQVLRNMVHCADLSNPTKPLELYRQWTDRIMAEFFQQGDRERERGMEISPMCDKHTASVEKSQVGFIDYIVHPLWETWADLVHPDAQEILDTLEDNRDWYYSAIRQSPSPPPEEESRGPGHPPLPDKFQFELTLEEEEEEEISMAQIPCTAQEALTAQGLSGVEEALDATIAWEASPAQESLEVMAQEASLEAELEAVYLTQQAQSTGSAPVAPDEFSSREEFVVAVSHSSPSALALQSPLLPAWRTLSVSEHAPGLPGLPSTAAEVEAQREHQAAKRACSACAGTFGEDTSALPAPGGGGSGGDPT
Another test deals with T3, Progesterone receptor (Homo sapiens, UniProt P06401).
T3 sequence (P06401 whole entry): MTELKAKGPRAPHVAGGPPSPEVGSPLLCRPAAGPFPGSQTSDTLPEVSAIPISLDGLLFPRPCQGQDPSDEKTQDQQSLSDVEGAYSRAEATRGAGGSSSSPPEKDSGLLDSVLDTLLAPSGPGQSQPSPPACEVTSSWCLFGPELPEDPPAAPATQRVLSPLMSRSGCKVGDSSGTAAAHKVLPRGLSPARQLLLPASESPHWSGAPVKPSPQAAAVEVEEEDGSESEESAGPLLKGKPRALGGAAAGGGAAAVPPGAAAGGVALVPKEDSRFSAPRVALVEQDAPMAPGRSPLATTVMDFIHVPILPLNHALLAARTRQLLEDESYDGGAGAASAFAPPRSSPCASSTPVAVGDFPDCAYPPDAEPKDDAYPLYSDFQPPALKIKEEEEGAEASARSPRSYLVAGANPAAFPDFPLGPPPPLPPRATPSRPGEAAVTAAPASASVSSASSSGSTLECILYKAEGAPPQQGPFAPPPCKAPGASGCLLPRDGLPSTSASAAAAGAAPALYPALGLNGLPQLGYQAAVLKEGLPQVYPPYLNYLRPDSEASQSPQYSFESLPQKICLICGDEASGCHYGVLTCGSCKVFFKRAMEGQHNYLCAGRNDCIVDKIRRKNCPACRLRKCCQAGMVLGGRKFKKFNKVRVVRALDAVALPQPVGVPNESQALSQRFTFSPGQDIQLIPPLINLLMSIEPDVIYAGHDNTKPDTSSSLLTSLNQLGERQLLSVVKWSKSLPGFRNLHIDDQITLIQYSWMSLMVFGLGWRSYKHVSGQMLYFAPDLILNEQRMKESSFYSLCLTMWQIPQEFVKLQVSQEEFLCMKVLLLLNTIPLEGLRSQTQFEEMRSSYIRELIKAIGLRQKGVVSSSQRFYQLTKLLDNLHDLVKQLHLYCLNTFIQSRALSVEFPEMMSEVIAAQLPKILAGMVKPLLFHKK

The target of test [4] is T4, Alpha-1A adrenergic receptor (Homo sapiens, UniProt P35348).
T4 sequence (P35348 whole entry): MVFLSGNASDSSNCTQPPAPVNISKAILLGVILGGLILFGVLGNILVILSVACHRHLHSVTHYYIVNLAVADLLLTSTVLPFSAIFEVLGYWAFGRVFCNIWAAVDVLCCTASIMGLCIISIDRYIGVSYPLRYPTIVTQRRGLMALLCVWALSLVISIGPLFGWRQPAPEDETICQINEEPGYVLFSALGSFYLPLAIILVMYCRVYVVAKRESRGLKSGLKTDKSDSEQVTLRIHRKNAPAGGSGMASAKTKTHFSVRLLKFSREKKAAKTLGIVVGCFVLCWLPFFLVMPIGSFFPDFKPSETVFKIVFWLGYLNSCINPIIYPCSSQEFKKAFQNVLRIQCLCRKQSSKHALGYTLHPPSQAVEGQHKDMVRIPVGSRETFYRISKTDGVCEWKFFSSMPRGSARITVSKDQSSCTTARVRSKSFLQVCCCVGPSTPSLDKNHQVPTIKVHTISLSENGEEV
In kind it is functional, cell-based.

Test [5] concerns the target T5, Alpha-2A adrenergic receptor (Homo sapiens, UniProt P08913).
T5 sequence (P08913 whole entry): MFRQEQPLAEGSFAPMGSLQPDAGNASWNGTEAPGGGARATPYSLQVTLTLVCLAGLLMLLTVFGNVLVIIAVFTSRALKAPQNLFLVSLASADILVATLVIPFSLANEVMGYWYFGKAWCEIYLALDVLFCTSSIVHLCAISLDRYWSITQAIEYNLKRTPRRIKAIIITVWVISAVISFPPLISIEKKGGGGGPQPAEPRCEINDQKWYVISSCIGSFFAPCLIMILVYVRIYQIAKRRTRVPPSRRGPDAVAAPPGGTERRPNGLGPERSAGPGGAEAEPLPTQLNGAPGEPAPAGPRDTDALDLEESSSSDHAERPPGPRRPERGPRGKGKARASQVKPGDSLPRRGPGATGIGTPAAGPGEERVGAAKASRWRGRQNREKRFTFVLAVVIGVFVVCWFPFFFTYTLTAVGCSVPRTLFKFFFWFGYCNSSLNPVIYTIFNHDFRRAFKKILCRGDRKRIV
Further: assay procedure not described here.

For orientation: AC50 means the concentration at which the activity in the assay is half-maximal. Higher therefore signals weaker potency. As for `CN(C)c1ccc(C(=C2C=CC(=[N+](C)C)C=C2)c2ccc(N(C)C)cc2)cc1` [GENTIAN VIOLET], the concentration at half-maximal activity (AC50) at Prothrombin was 25.2 µM; on Thromboxane A2 receptor, greater than 30 µM; in test [1], 4.24 µM; in test [2], greater than 30 µM; in test [3], 13.2 µM; on Progesterone receptor, 1.67 µM. The AC50 in test [4] was 0.845 µM; in test [5], 1.43 µM.

`Nc1ccc(S(N)(=O)=O)cc1` [SULFANILAMIDE]: the AC50 (on Prothrombin; on Thromboxane A2 receptor; in test [1]; in test [2]; in test [3]; at Progesterone receptor) was greater than 30 µM each time. In addition, the AC50 in test [4] and in test [5] was greater than 30 µM each time.
